# Data reported in patent publication US10577378B2, “EIF4A-inhibiting compounds and methods related thereto” (eFFECTOR Therapeutics, Inc., priority 2015, dated 2020).
# Tested on: MDA-MB-231 human breast cancer cells
# Assay: Cell proliferation assay (CellTiter-Glo, 72 hours treatment)
# Assay type: cell-based
# Conditions: Homo sapiens; MDA-MB-231 cells, 72 hours at 37° C., CellTiter-Glo; read-out: MDA-MB-231 cell proliferation assay (IC50)
# Protocol: Human tumor cell lines were cultured in the appropriate media (DMEM and RPMI) supplemented with penicillin G (100 U/ml), streptomycin (100 μg/ml), 10% FBS in a humidified atmosphere of 5% CO2 maintained at 37° C. Exponentially growing cells were seeded at 2,500 cells/well in 96 well plates prior to drug treatment. The following day, cells were treated with either DMSO (vehicle control) or eIF4A inhibitors at the appropriate dose for 72 hours at 37° C. Following compound treatment, cell proliferation was assessed by CellTiter-Glo assay (Promega, Madison Wis.) according to the manufacturer's protocol. Dose-response curves were fitted by non-linear regression (sigmoidal dose response model) using KaleidaGraph (Synergy Software, Reading Pa.) and IC50 values were calculated.
# To this end, IC50 values of less than 100 nM are labelled as “+++”, from 100 nM to 1000 nM are labelled as “++”, and greater than 1000 nM are labelled as “+” (NA means “not available”).
row,SMILES,IC50 [nM]
1,"CN(C)C(=O)[C@@H]1[C@@H](c2ccccc2)[C@]2(c3ccc(C#N)cc3)Oc3cc(Cl)cnc3[C@]2(O)[C@@]1(C)O (racemic) [33Fb, Rac-(5aR,6S,7R,8S,8aS)-3-chloro-5a-(4-cyanophenyl)-8,8a-dihydroxy-N,N,8-trimethyl-6-phenyl-5a,7,8,8a-tetrahydro-6H-cyclopenta[4,5]furo[3,2-b]pyridine-7-carboxamide]",> 1000
2,"C=C1C[C@@H](c2ccccc2)[C@]2(c3ccc(Br)cc3)Oc3cc(Cl)cnc3[C@]12O (racemic) [34F, Rac-(5aR,6S,8aR)-5a-(4-bromophenyl)-3-chloro-8-methylene-6-phenyl-5a,6,7,8-tetrahydro-8aH-cyclopenta[4,5]furo[3,2-b]pyridin-8a-ol]",> 1000
3,"COC1=C(C(=O)N(C)C)[C@@H](c2ccccc2)[C@]2(c3ccc(Br)cc3)Oc3cc(Cl)cnc3[C@]12O (racemic) [35F, rac-(5aR,6R,8aS)-5a-(4-bromophenyl)-3-chloro-8a-hydroxy-8-methoxy-N,N-dimethyl-6-phenyl-5a,8a-dihydro-6H-cyclopenta[4,5]furo[3,2-b]pyridine-7-carboxamide]",> 1000
4,"CN(C)C(=O)[C@H]1[C@@H](O)[C@@]2(O)c3nn(C)c(Cl)c3O[C@@]2(c2ccc(C#N)cc2)[C@@H]1c1ccccc1 (racemic) [36F, Rac-(4aR,5S,6R,7R,7aS)-3-chloro-4a-(4-cyanophenyl)-7,7a-dihydroxy-N,N,2-trimethyl-5-phenyl-2,4a,5,6,7,7a-hexahydrocyclopenta[4,5]furo[3,2-c]pyrazole-6-carboxamide]",> 1000
5,"CN(C)C(=O)[C@H]1[C@@H](O)[C@@]2(O)c3nn(C)c(Cl)c3O[C@@]2(c2ccc(Br)cc2)[C@@H]1c1ccccc1 (racemic) [37F, Rac-(4aR,5S,6R,7R,7aS)-4a-(4-bromophenyl)-3-chloro-7,7a-dihydroxy-N,N,2-trimethyl-5-phenyl-2,4a,5,6,7,7a-hexahydrocyclopenta[4,5]furo[3,2-c]pyrazole-6-carboxamide]",> 1000
6,"O[C@]12c3ncc(Cl)cc3O[C@@]1(c1ccc(Br)cc1)[C@H](c1ccccc1)C[C@@]21CCO1 (racemic) [38F, Rac-(5aR,6S,8R,8aS)-5a-(4-bromophenyl)-3-chloro-6-phenyl-6,7-dihydrospiro[cyclopenta[4,5]furo[3,2-b]pyridine-8,2′-oxetan]-8a(5aH)-ol]",> 1000
7,"CNC[C@H]1[C@@H](O)[C@@]2(O)c3ncc(Cl)cc3O[C@@]2(c2ccc(C#N)cc2)[C@@H]1c1ccccc1 (racemic) [39F, Rac-4-((5aR,6S,7S,8R,8aS)-3-chloro-8,8a-dihydroxy-7-((methylamino)methyl)-6-phenyl-6,7,8,8a-tetrahydro-5aH-cyclopenta[4,5]furo[3,2-b]pyridin-5a-yl)benzonitrile]",100 to 1000
8,"CN(C)C[C@H]1[C@@H](O)[C@@]2(O)c3ncc(Cl)cc3O[C@@]2(c2ccc(C#N)cc2)[C@@H]1c1ccccc1 (racemic) [40Fb, rac-4-((5aR,6S,7S,8R,8aS)-3-chloro-7-((dimethylamino)methyl)-8,8a-dihydroxy-6-phenyl-6,7,8,8a-tetrahydro-5aH-cyclopenta[4,5]furo[3,2-b]pyridin-5a-yl)benzonitrile]",100 to 1000
9,"N#Cc1ccc([C@@]23Oc4cc(Cl)cnc4[C@]2(O)[C@H](O)[C@@H](CN2CCCC2)[C@H]3c2ccccc2)cc1 (racemic) [41Fa, Rac-4-((5aR,6S,7R,8R,8aS)-3-chloro-8,8a-dihydroxy-6-phenyl-7-(pyrrolidin-1-ylmethyl)-6,7,8,8a-tetrahydro-5aH-cyclopenta[4,5]furo[3,2-b]pyridin-5a-yl)benzonitrile]",> 1000
10,"N#Cc1ccc([C@@]23Oc4cc(Cl)cnc4[C@]2(O)[C@H](O)[C@H](CN2CCCC2)[C@H]3c2ccccc2)cc1 (racemic) [41Fb, rac-4-((5aR,6S,7S,8R,8aS)-3-chloro-8,8a-dihydroxy-6-phenyl-7-(pyrrolidin-1-ylmethyl)-6,7,8,8a-tetrahydro-5aH-cyclopenta[4,5]furo[3,2-b]pyridin-5a-yl)benzonitrile]",100 to 1000
11,"N#Cc1ccc([C@@]23Oc4cc(Cl)cnc4[C@]2(O)[C@@H](O)[C@H](CN2CCCC2)[C@H]3c2ccccc2)cc1 (racemic) [41Fc, rac-4-((5aR,6S,7S,8S,8aS)-3-chloro-8,8a-dihydroxy-6-phenyl-7-(pyrrolidin-1-ylmethyl)-6,7,8,8a-tetrahydro-5aH-cyclopenta[4,5]furo[3,2-b]pyridin-5a-yl)benzonitrile]",> 1000
12,"COc1ccc([C@@]23Oc4cc(OC)ccc4[C@]2(N=[N+]=[N-])[C@H](O)[C@H](C(=O)N(C)C)[C@H]3c2ccccc2)cc1 (racemic) [42F, Rac-(1R,2R,3S,3aR,8bS)-8b-azido-1-hydroxy-6-methoxy-3a-(4-methoxyphenyl)-N,N-dimethyl-3-phenyl-2,3-dihydro-1H-cyclopenta[b]benzofuran-2-carboxamide]",100 to 1000
13,"COC(=O)[C@H]1[C@@H](O)[C@@]2(F)c3ncc(Cl)cc3O[C@@]2(c2ccc(Br)cc2)[C@@H]1c1ccccc1 (racemic) [43F, Rac-methyl (5aR,6S,7R,8R,8aS)-5a-(4-bromophenyl)-3-chloro-8a-fluoro-8-hydroxy-6-phenyl-5a,7,8,8a-tetrahydro-6H-cyclopenta[4,5]furo[3,2-b]pyridine-7-carboxylate]",> 1000
14,"COc1ccc([C@@]23Oc4cc(OC)ccc4[C@]2(N)[C@H](O)[C@H](C(=O)N(C)C)[C@H]3c2ccccc2)cc1 (racemic) [44F, Rac-(1R,2R,3S,3aR,8bS)-8b-amino-1-hydroxy-6-methoxy-3a-(4-methoxyphenyl)-N,N-dimethyl-3-phenyl-2,3,3a,8b-tetrahydro-1H-cyclopenta[b]benzofuran-2-carboxamide]",> 1000
15,"COc1ccc([C@@]23Oc4cc(OC)ccc4[C@]2(NC(C)=O)[C@H](O)[C@H](C(=O)N(C)C)[C@H]3c2ccccc2)cc1 (racemic) [45F, Rac-(1R,2R,3S,3aR,8bS)-8b-acetamido-1-hydroxy-6-methoxy-3a-(4-methoxyphenyl)-N,N-dimethyl-3-phenyl-2,3,3a,8b-tetrahydro-1H-cyclopenta[b]benzofuran-2-carboxamide]",> 1000
16,"COC(=O)C(C[C@H]1C(=O)[C@@]2(O)c3ncc(Cl)cc3O[C@@]2(c2ccc(Br)cc2)[C@@H]1c1ccccc1)C(=O)OC (racemic) [46F, Rac-dimethyl 2-[[(5aR,6S,7R,8aR)-5a-(4-bromophenyl)-3-chloro-8a-hydroxy-8-oxo-6-phenyl-6,7-dihydrocyclopenta[4,5]furo[1,2-b]pyridin-7-yl]methyl]propanedioate]",> 1000
17,"N#C[C@@H]1C[C@@H](c2ccccc2)[C@]2(c3ccc(Br)cc3)Oc3cc(Cl)cnc3[C@]12O (racemic) [47F, Rac-(5aR,6S,8S,8aR)-5a-(4-bromophenyl)-3-chloro-8a-hydroxy-6-phenyl-5a,7,8,8a-tetrahydro-6H-cyclopenta[4,5]furo[3,2-b]pyridine-8-carbonitrile]",> 1000
18,"C#CC1C[C@@H](c2ccccc2)[C@]2(c3ccc(Br)cc3)Oc3cc(Cl)cnc3[C@]12O (mixture of isomers) [48F, Rac-(5aR,6S,8aR)-5a-(4-bromophenyl)-3-chloro-8-ethynyl-6-phenyl-5a,6,7,8-tetrahydro-8aH-cyclopenta[4,5]furo[3,2-b]pyridin-8a-ol]",> 1000
